System: M. abscessus clinical isolates
Assay: Antibiotic resistance profile of clinical isolates

Substance: Trimethoprim/Sulfa
- Antibiotic Susceptibility: 1

— US12458673B2, “Use of specific phages for the treatment of nontuberculosis mycobacteria (NTM) infections” (priority 2019, dated 2025)
